SMILES strings stand for the structures. In brackets after ≈: the same amount, converted by molar mass. Read-outs that look alike come from different tables or passages of the source.

The conditions of data set [1]: cited from earlier work.
The nature of data set [2]: Aqueous solubility, shake-flask method. The note with it: pH 7.0 buffer, thermodynamic from solid, shaking flask, buffered media at pH 7.0, mean of three. Format: physicochemical. The procedure, abridged: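 Concentration read by UV at maximum absorbance wavelength, interpolated on each compound's own calibration line, mean of three independent runs. Samples were suspensions of 5 mg in 500 µL pH 7.0 buffer, stirred at room temperature for 72 h and filtered before reading.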

For another data set, the system named is bovine brain tubulin. Nature of the data set: Tubulin polymerization inhibition (turbidimetry). Format: biochemical. The note with it: for IC50: concentration inhibiting 50% of microtubular protein polymerization in vitro, read-out: TPI IC50; for % TPI: compounds tested at 10 µM, with respect to the negative control. The method in brief:
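Turbidimetric assay using calf-brain microtubular protein: polymerization started by a shift from 4 °C to 37 °C and followed by absorbance at 450 nm. Percent inhibition calculated against a ligand-free control; IC50 determined only for compounds giving >50% inhibition at 10 µM. Triplicates in two independent experiments using separate protein preparations.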

For a further data set, the system named is GL261 cells. The data set is described as follows: Cell growth inhibition assay (MTT). Particulars: Mus musculus, GL261, 72 h after drug exposure. Format: cell-based, murine. The method in brief:
(§1)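 Following overnight (24 h) attachment, cultures received serial compound concentrations from 10^−10 to 10^−2 M and were incubated 72 h before MTT viability measurement. Where efflux-pump sensitivity was tested, IC50 was redetermined with 10 µM verapamil present.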

Data set [3] concerns HT-29 cells. The data set is described as follows: Cell growth inhibition (MTT) in the presence of 10 µM verapamil (sensitivity to MDR efflux pumps). The note with it: 10 µM verapamil (P-gp/MDR1 inhibitor). Format: cell-based, human.
The subject of the next data set is HEK-293 cells. The data set is described as follows: Cell growth inhibition assay (MTT), non-tumorigenic cells. Format: cell-based, human. Particulars: Homo sapiens, HEK293, 72 h after drug exposure, non-tumorigenic cell line. The method in brief:
as §1

The subject of data set [4] is HT-29 cells. Nature of the data set: Cell growth inhibition assay (MTT). Format: cell-based, human. The note with it: Homo sapiens, HT-29, 72 h after drug exposure. The procedure, abridged: as §1
The next data set has as its system T98G cells. The data set is described as follows: Cell growth inhibition assay (MTT). Format: cell-based, human. The note with it: Homo sapiens, T98G, 72 h after drug exposure. The method in brief:
(§2)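 Cells seeded (30,000 cells/mL for T98G and PC-3; 15,000 cells/mL for HeLa), attached 24 h at 37 °C, then treated with compounds at 10^−10 to 10^−2 M for 72 h. Viability read by MTT; IC50 from triplicate points, three independent experiments.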

Data set [5] deals with HeLa cells. The data set is described as follows: Cell growth inhibition assay (MTT). Format: cell-based, human. The note with it: Homo sapiens, HeLa, 72 h after drug exposure. The procedure, abridged:
as §2

For another data set, the system named is HepG2 cells. Nature of the data set: Cell growth inhibition assay (MTT). Format: cell-based, human. The note with it: Homo sapiens, HepG2, 72 h after drug exposure. The method in brief:
as §1

Another data set deals with PC-3 cells. The data set is described as follows: Cell growth inhibition assay (MTT). Particulars: Homo sapiens, PC-3, 72 h after drug exposure. Format: cell-based, human. The procedure, abridged: as §2
A further data set relates to MCF7 cells. Nature of the data set: Cell growth inhibition assay (MTT). Format: cell-based, human. Particulars: Homo sapiens, MCF7; MTT, 72 h after drug exposure. The method in brief:
as §1

The next data set deals with LNCaP cells. Nature of the data set: Cell growth inhibition assay (MTT). Format: cell-based, human. The note with it: Homo sapiens, LNCaP, 72 h after drug exposure. The procedure, abridged: as §1
For another data set, the system named is U87MG cells. Nature of the data set: Cell growth inhibition assay (MTT). Particulars: Homo sapiens, U-87 MG; MTT, 72 h after drug exposure. Format: cell-based, human. The method in brief:
as §1

The subject of a further data set is tumor cell lines. The data set is described as follows: Cell growth inhibition assay (MTT), summary statements over several cell lines. Format: cell-based. Particulars: read-out: antiproliferative IC50. Here is the method: Cells were plated in 96-well plates (100 µL/well) at the following concentrations: 30,000 cells/mL (HepG2, U87 MG, T98G, C6, LNCaP, PC3, and HT-29 cells) or 15,000 cells/mL (HeLa and MCF-7 cells). Previous experiments were performed to choose the optimal cell concentration (70–80% confluence) and avoid the formation of cell aggregates. Cells were incubated in complete DMEM or RPMI 1640 medium (see above) at 37 °C and 5% CO2 atmosphere for 24 h to allow for cell attachment to the plate. Then, every compound was added (10 µL/well) to a final concentration of 10 µM. Non-treated cells were used as negative controls. The antiproliferative activity of compounds was measured 72 h after the treatments using the MTT reagent (3-[4,5-dimethylthiazol-2-yl]-2,5-diphenyltetrazolium bromide), (MTT Thiazolyl Blue Tetrazolium Bromide, Sigma-Aldrich, St. Louis, MO, USA) dissolved in PBS at 5 mg/mL. Compounds showing antiproliferative effects at 10 µM were selected to determine their IC50 value. For that purpose, compounds were used at different concentrations ranging from 10^−10 to 10^−2 M. Measurements were performed in triplicate, and each experiment was repeated three times. The IC50 value was determined for every compound using Origin software (OriginLab, Washington, USA). To study the sensitivity to MDR efflux pumps of compounds, the IC50 values were determined by following the same procedure but in the presence of verapamil (final concentration of 10 µM).

Data set [6] relates to HeLa cells. Details: method as in PMID 25970265. The note with it: read-out: IC50 cell proliferation of HeLa cells; cited from earlier work.

As to `COc1ccc(/C=C\c2cc(OC)c(OC)c(OC)c2)cc1O` [CA-4, combretastatin A-4, reference compound], the water solubility in data set [1] is 0.001 mg/mL (≈ 3.16 µM). Besides, the solubility (as a rule, the dissolved amount per volume that the medium holds) at 72 h in data set [2] (pH 7, aqueous buffer) came out at 0.0011 mg/mL (≈ 3.48 µM). The IC50 with bovine brain tubulin came to […].

With `COc1ccc2nc(NCc3ccncc3)sc2c1` [Compound 3, 6-methoxy-N-(pyridin-4-ylmethyl)benzo[d]thiazol-2-amine], the IC50 in the data set with GL261 cells was 2.03 µM; in the data set on HT-29 cells [3], 3.27 µM; in the data set on HEK-293 cells it was > 10 µM; in the data set with HT-29 cells [4] it was 3.39 µM; in the data set with T98G cells, 2.27 µM; with HeLa cells [5], 1.45 µM. In addition, the IC50 in the data set with HepG2 cells is 1.23 µM; in the data set with PC-3 cells, 3.31 µM; in the data set with MCF7 cells, 1.74 µM; in the data set with LNCaP cells, 2.01 µM; with U87MG cells, 1.51 µM; with tumor cell lines (HeLa, HepG2, MCF7, and U87MG), ~1 µM. For the same compound, the IC50 in the data set on tumor cell lines (the rest of the tumor cell lines (other than HeLa, HepG2, MCF7, U87MG)) was 2 to 3 µM; with bovine brain tubulin, > 10 µM. The compound further had a solubility at 72 h in data set [2] (pH 7, aqueous buffer) of 0.055 mg/mL (≈ 203 µM).

On to `CCNC(=O)N(Cc1ccccn1)c1nc2ccc(OC)cc2s1` [Compound 7, 3-ethyl-1-(6-methoxybenzo[d]thiazol-2-yl)-1-(pyridin-2-ylmethyl)urea], for which the IC50 turned out to be 0.096 µM in the data set with GL261 cells; 0.315 µM in the data set on HT-29 cells [3]; 8.81 µM in the data set on HEK-293 cells; 0.303 µM in the data set on HT-29 cells [4]; 0.125 µM in the data set with T98G cells; 0.275 µM with HeLa cells [5]. Also, the IC50 in the data set with HepG2 cells is 0.198 µM; in the data set with PC-3 cells it was 0.33 µM; in the data set on MCF7 cells, 0.251 µM; in the data set on LNCaP cells it was 0.247 µM; in the data set on U87MG cells it was 0.062 µM; in the data set on tumor cell lines (the rest of the cell lines (other than glioblastoma U87MG and GL261)) it was 0.1 to 0.3 µM. In addition, in the data set with bovine brain tubulin, the IC50 is 4.2 µM. In [2] (pH 7, aqueous buffer), the concentration in solution (solubility at 72 h) came to 0.098 mg/mL (≈ 286 µM). Besides, the “% TPI” value with bovine brain tubulin was determined as 87%.

With `COc1ccc2nc(N(C=O)Cc3ccccn3)sc2c1` [Compound 13, N-(6-methoxybenzo[d]thiazol-2-yl)-N-(pyridin-2-ylmethyl)formamide], the IC50 with GL261 cells turned out to be 0.195 µM; in the data set on HT-29 cells [3], 0.54 µM; in the data set on HEK-293 cells it was 9.31 µM; in the data set with HT-29 cells [4], 0.557 µM; with T98G cells, 0.327 µM; in the data set with HeLa cells [5], 0.331 µM. Further, the IC50 was 0.321 µM in the data set on HepG2 cells; 0.423 µM with PC-3 cells; 0.221 µM in the data set on MCF7 cells; 0.315 µM in the data set on LNCaP cells; 0.254 µM in the data set on U87MG cells; ~0.2 µM with tumor cell lines (Homo sapiens, MCF7, glioblastoma and MCF7 cells). Moreover, the IC50 in the data set with tumor cell lines (all the cell lines) is 0.3 to 0.5 µM; in the data set on bovine brain tubulin it was 5 µM. The solubility at 72 h in [2] (pH 7, aqueous buffer) was determined as 0.09 mg/mL (≈ 301 µM). The “% TPI” value in the data set on bovine brain tubulin is reported as 80%.

For the compound `Cc1cc2nc(/C=C/c3cccnc3)sc2cc1C` [MI181, reference compound], the IC50 in the data set with HeLa cells [6] is 0.017 µM; in the data set on bovine brain tubulin, 4.6 µM. In addition, the solubility at 72 h in data set [2] (aqueous buffer) is 0.0056 mg/mL (≈ 21 µM).

Source of the values: publication PMC10301603, “Potent and Selective Benzothiazole-Based Antimitotics with Improved Water Solubility: Design, Synthesis, and Evaluation as Novel Anticancer Agents” (Pharmaceutics, 2023).
